Measured values: patent US8916599B2, “1H-benz imidazole-5-carboxamides as anti-inflammatory agents” (Orexo AB, priority 2008, dated 2014)

These molecules were tested against T1, recombinant human mPGES-1 (Homo sapiens, UniProt O14684) (assay: mPGES-1 inhibition test (microsomes, PGH2 substrate, HTRF detection of PGE2)). Conditions: inhibition of mPGES-1 at 10 μM.
T1 construct: made in house; host or cells: Rosetta E. coli (microsomal/membrane fraction)
T1 sequence (O14684 1-152): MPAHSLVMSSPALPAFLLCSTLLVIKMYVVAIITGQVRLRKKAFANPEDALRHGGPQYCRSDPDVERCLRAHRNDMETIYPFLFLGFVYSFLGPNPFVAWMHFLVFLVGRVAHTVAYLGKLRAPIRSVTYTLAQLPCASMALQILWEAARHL
Format: biochemical
In short: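 Microsomes from E. coli expressing recombinant human mPGES-1 in 0.1 M KPi pH 7.4 with 2.5 mM GSH were preincubated with inhibitor 25 min at room temperature. PGH2 was then added, and the reaction was stopped after 1 min with acidified FeCl2. PGE2 was quantified by HTRF (665/620 nm ratio) against a synthetic PGE2 standard curve.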

Row | Compound | inhibition at 10 µM [%]
1 | CCCCOc1cccc(NC(=O)c2ccc3[nH]c(Nc4c(Cl)cccc4Cl)nc3c2)n1 [Example 426, N-(6-Butoxypyridin-2-yl)-2-(2,6-dichlorophenylamino)-1H-benzimidazole-5-carboxamide] | 98
2 | CC(C)CCNC(=O)c1cc2nc(Nc3c(Cl)cccc3Cl)n(C)c2cc1F [Example 428, 2-(2,6-Dichlorophenylamino)-6-fluoro-N-isopentyl-1-methyl-1H-benzimidazole-5-carboxamide] | 100
3 | Cn1c(Nc2c(Cl)cc(F)cc2Cl)nc2cc(C(=O)N[C@H]3CC[C@H](C(F)(F)F)CC3)ccc21 [Example 432, 2-(2,6-Dichloro-4-fluorophenylamino)-1-methyl-N-((1R,4R)-4-trifluoromethyl-cyclohexyl)-1H-benzimidazole-5-carboxamide] | 100
4 | Cn1c(Nc2ccc(Cl)cc2C(F)(F)F)nc2cc(C(=O)Nc3ccc(Br)cc3)ccc21 [Example 433, N-(4-Bromophenyl)-2-(4-chloro-2-trifluoromethyl-phenylamino)-1-methyl-1H-benzimidazole-5-carboxamide] | 99
5 | Cn1c(Nc2c(Cl)cccc2Cl)nc2cc(C(=O)NC3CCC4(CC4)C3)ccc21 (stereo not shown) [Example 436, 2-(2,6-Dichlorophenylamino)-1-methyl-N-(spiro[2.4]heptan-5-yl)-1H-benzimidazole-5-carboxamide] | 99
6 | CCCC[C@H](C)NC(=O)c1cc2nc(Nc3c(Cl)cccc3Cl)[nH]c2cc1F [Example 443, (S)-2-(2,6-Dichlorophenylamino)-6-fluoro-N-(hexan-2-yl)-1H-benzimidazole-5-carboxamide] | 100
7 | CCCC[C@H](C)NC(=O)c1cc2nc(Nc3c(Cl)cccc3Cl)n(C)c2cc1F [Example 450, (S)-2-(2,6-Dichlorophenylamino)-6-fluoro-N-(hexan-2-yl)-1-methyl-1H-benzimidazole-5-carboxamide] | 99
8 | Cn1c(Nc2c(Cl)cccc2Cl)nc2cc(C(=O)NCc3ncccc3Cl)c(F)cc21 [Example 452, N-((3-Chloropyridin-2-yl)methyl)-2-(2,6-dichlorophenylamino)-6-fluoro-1-methyl-1H-benzimidazole-5-carboxamide] | 93
9 | Cn1c(Nc2ccc(F)cc2Cl)nc2cc(C(=O)Nc3ccc(Br)cc3)ccc21 [Example 456, N-(4-Bromophenyl)-2-(2-chloro-4-fluorophenylamino)-1-methyl-1H-benzimidazole-5-carboxamide] | 100
10 | CCCC[C@@H](C)NC(=O)c1cc2nc(Nc3c(Cl)cccc3Cl)[nH]c2cc1F [Example 457, (R)-2-(2,6-Dichlorophenylamino)-6-fluoro-N-(hexan-2-yl)-1H-benzimidazole-5-carboxamide] | 100
11 | Cn1c(Nc2c(Cl)cccc2Cl)nc2cc(C(=O)Nc3cc(C(C)(C)C)ccn3)ccc21 [Example 464, N-(4-tert.-Butylpyridin-2-yl)-2-(2,6-dichlorophenylamino)-1-methyl-1H-benzimidazole-5-carboxamide] | 99
12 | COc1cc2c(cc1C(=O)NCc1ncccc1C)nc(Nc1c(Cl)cccc1Cl)n2C [Example 465, 2-(2,6-Dichlorophenylamino)-6-methoxy-1-methyl-N-((3-methylpyridin-2-yl)methyl)-1H-benzimidazole-5-carboxamide] | 100
13 | Cc1cnc(CNC(=O)c2cc3nc(Nc4c(Cl)cccc4Cl)n(C)c3cc2F)c(C)c1 [Example 470, 2-(2,6-Dichlorophenylamino)-N-((3,5-dimethylpyridin-2-yl)methyl)-6-fluoro-1-methyl-1H-benzimidazole-5-carboxamide] | 100
14 | CN(C)c1cccnc1CNC(=O)c1cc2nc(Nc3c(Cl)cccc3Cl)n(C)c2cc1F [Example 474, 2-(2,6-Dichlorophenylamino)-N-((3-dimethylamino-pyridin-2-yl)-methyl)-6-fluoro-1-methyl-1H-benzimidazole-5-carboxamide] | 100
15 | Cn1c(Nc2c(Cl)cccc2Cl)nc2cc(C(=O)NC3CCC4(CC3)CC4)ccc21 [Example 483, 2-(2,6-Dichlorophenylamino)-1-methyl-N-(spiro[2.5]octan-6-yl)-1H-benzimidazole-5-carboxamide] | 95
16 | O=C(NC1CCC2(CC1)CC2)c1ccc2[nH]c(Nc3c(F)cccc3Cl)nc2c1 [Example 488, 2-(2-Chloro-6-fluorophenylamino)-N-(spiro[2.5]octan-6-yl)-1H-benzimidazole-5-carboxamide] | 98
17 | Cc1cc(C)c(Nc2nc3cc(C(=O)Nc4ccc(Br)cc4)ccc3n2C)c(Cl)c1 [Example 489, N-(4-Bromophenyl)-2-(2-chloro-4,6-dimethylphenylamino)-1-methyl-1H-benzimidazole-5-carboxamide] | 98
18 | COc1cc2c(cc1C(=O)NCc1ncccc1OC)nc(Nc1c(Cl)cccc1Cl)n2C [Example 491, 2-(2,6-Dichlorophenylamino)-6-methoxy-N-((3-methoxypyridin-2-yl)-methyl)-1-methyl-1H-benzimidazole-5-carboxamide] | 99
19 | Cn1c(Nc2c(Cl)cccc2Cl)nc2cc(C(=O)Nc3cc(Cl)ccn3)cc(Br)c21 [Example 492, 7-Bromo-N-(4-chloropyridin-2-yl)-2-(2,6-dichlorophenylamino)-1-methyl-1H-benzimidazole-5-carboxamide] | 98
20 | Cn1c(Nc2c(Cl)cccc2Cl)nc2cc(C(=O)Nc3ccc(Cl)cn3)ccc21 [Example 494, N-(5-Chloropyridin-2-yl)-2-(2,6-dichlorophenylamino)-1-methyl-1H-benzimidazole-5-carboxamide] | 99
21 | Cc1ccc(NC(=O)c2ccc3[nH]c(Nc4c(Cl)cccc4Cl)nc3c2)nc1C [Example 498, 2-(2,6-Dichlorophenylamino)-N-(5,6-dimethylpyridin-2-yl)-1H-benzimidazole-5-carboxamide] | 100
22 | CN(C)c1cccc(Cl)c1Nc1nc2cc(C(=O)Nc3ccc(Br)cc3)ccc2n1C [Example 499, N-(4-Bromophenyl)-2-(2-chloro-6-(dimethylamino)phenylamino)-1-methyl-1H-benzimidazole-5-carboxamide] | 100
23 | O=C(Nc1cc(Cl)ccn1)c1cc(Br)c2[nH]c(Nc3c(Cl)cccc3Cl)nc2c1 [Example 500, 7-Bromo-N-(4-chloropyridin-2-yl)-2-(2,6-dichlorophenylamino)-1H-benzimidazole-5-carboxamide] | 100

Second part, the molecule after the results:

Row | inhibition at 10 µM [%] | Compound
24 | 100 | Cn1c(Nc2c(F)cccc2Cl)nc2cc(C(=O)NC3CCC(C)(C)CC3)c(F)cc21 [Example 430, 2-(2-Chloro-6-fluorophenylamino)-N-(4,4-dimethylcyclohexyl)-6-fluoro-1-methyl-1H-benzimidazole-5-carboxamide]
25 | 97 | CCC1CCC(NC(=O)c2cc3nc(Nc4c(Cl)cccc4Cl)n(C)c3cc2F)CC1 (stereo not shown) [Example 437, 2-(2,6-Dichlorophenylamino)-N-(4-ethylcyclohexyl)-6-fluoro-1-methyl-1H-benzimidazole-5-carboxamide]
26 | 97 | Cn1c(Nc2c(F)cccc2Cl)nc2cc(C(=O)NC3CCC4(CC3)CC4)ccc21 [Example 441, 2-(2-Chloro-6-fluorophenylamino)-1-methyl-N-(spiro[2.5]octan-6-yl)-1H-benzimidazole-5-carboxamide]
27 | 99 | C[C@@H]1CCC[C@@H](NC(=O)c2cc3nc(Nc4c(Cl)cccc4Cl)n(C)c3cc2F)C1 [Example 442, 2-(2,6-Dichlorophenylamino)-6-fluoro-1-methyl-N-((1R,3R)-3-methylcyclohexyl)-1H-benzimidazole-5-carboxamide]
28 | 99 | Cn1c(Nc2c(Cl)cccc2Cl)nc2cc(C(=O)NC3CC(C)(C)C3)c(F)cc21 [Example 447, 2-(2,6-Dichlorophenylamino)-N-(3,3-dimethylcyclobutyl)-6-fluoro-1-methyl-1H-benzimidazole-5-carboxamide]
29 | 99 | CCCCCCNC(=O)c1cc2nc(Nc3c(F)cccc3Cl)n(C)c2cc1F [Example 458, 2-(2-Chloro-6-fluorophenylamino)-6-fluoro-N-hexyl-1-methyl-1H-benzimidazole-5-carboxamide]
30 | 100 | Cn1c(Nc2c(Cl)cccc2Cl)nc2cc(C(=O)N[C@H]3CC[C@H](C(F)F)CC3)c(F)cc21 [Example 475, 2-(2,6-Dichlorophenylamino)-N-((1r,4r)-4-(difluoromethyl)cyclohexyl)-6-fluoro-1-methyl-1H-benzimidazole-5-carboxamide]
31 | 100 | Cn1c(Nc2c(F)cccc2Cl)nc2cc(C(=O)N[C@H]3CC[C@H](C(F)F)CC3)c(F)cc21 [Example 476, 2-(2-Chloro-6-fluorophenylamino)-N-((1r,4r)-4-(difluoromethyl)cyclohexyl)-6-fluoro-1-methyl-1H-benzimidazole-5-carboxamide]
32 | 95 | Cn1c(Nc2c(Cl)cccc2Cl)nc2cc(C(=O)NCCC3CC3)c(F)cc21 [Example 484, N-(2-Cyclopropylethyl)-2-(2,6-dichlorophenylamino)-6-fluoro-1-methyl-1H-benzimidazole-5-carboxamide]
33 | 100 | O=C(N[C@H]1CC[C@H](C(F)F)CC1)c1cc2nc(Nc3c(Cl)cccc3Cl)[nH]c2cc1F [Example 496, 2-(2,6-Dichlorophenylamino)-N-((1r,4r)-4-(difluoromethyl)cyclohexyl)-6-fluoro-1H-benzimidazole-5-carboxamide]
34 | 98 | C[C@@H]1CCC(NC(=O)c2cc3nc(Nc4c(F)cccc4Cl)n(C)c3cc2F)C1 (stereo partly drawn) [Example 501, 2-(2-Chloro-6-fluorophenylamino)-6-fluoro-1-methyl-N-((3R)-3-methylcyclopentyl)-1H-benzimidazole-5-carboxamide]
